Where a SMILES comes first, the peptide text is derived from it. Where no end group is shown, it is not given here. [ ]: non-standard residue; d: D form. The star is where a group is joined. 1Nal = N[C@@H](Cc1cccc2ccccc12)C(=O)O; AEEA = NCCOCCOCC(=O)O; Butyryl = CCCC(=O)*

The nature of one series: in vivo. Details: species or system rodents. The note with it: topical or ocular, 2 ug. On the procedure:
In addition, bioavailability studies of the peptides in rodent eyes were conducted and the results were compared to the control standard P78 peptide. For example, the peptides were tested in bioavailability studies in rodents at 1, 2, 4, 8 hrs (n=4 each peptide/time pt). The animals were given a single eye drop containing 2 μg of each peptide. At each time point the animals were sacrificed, vitreous harvested, and bioavailability assessed by Maldi TOF.

In another series the test system is RPE cultures. Nature of the series: In vitro tests of inflammation, angiogenesis and cell viability, summarised together. The class given is cell-based, human. As to conditions: assays other than VEGFA. How it is done: (§1) The analogs were tested for their efficacy in reducing levels of TNFα, IFNγ, VEGF-A and increasing cell viability in in vitro assays. Efficacy was compared to both non-treated oxidative stressed controls and the control standard P78.
The analogs disclosed in Table 1 were assayed for improved stability and efficacy in in vitro assays for inflammation, angiogenesis, and cell death, which are the three leading pathological features of diabetic retinopathy.
Briefly, to test efficacy of the compounds in preventing cell death, experiments were performed to screen for the ability of each analog to: 1) increase cellular bioenergetic levels in an ATP assay and 2) reduce cell death in an LDH assay. To test the action of each analog on inflammatory processes, Luminex bead arrays were used to examine the ability of each analog to decrease production of inflammatory cytokines. To test for the potential of each analog to reduce vascular leakage, qPCR was used to examine the ability of each analog to increase mRNA levels of ZO1 and occludin, two junction proteins essential to vascular integrity. To test peptide stability in the vitreous, the analogs were incubated with dissected vitreous humor and the samples were analyzed at various time points using Maldi-TOF. […]

Another series has as its system VEGFA. Nature of the series: VEGFA secretion by RPE cells, Luminex. The class given is cell-based, human. The note with it: for effect in reducing VEGFA levels compared to P78: 25 nM peptide, serum starvation. How it is done:
as §1
(§2) Briefly, to test efficacy of the compounds in preventing cell death, experiments were performed to screen for the ability of each analog to: 1) increase cellular bioenergetic levels in an ATP assay and 2) reduce cell death in an LDH assay. To test the action of each analog on inflammatory processes, Luminex bead arrays were used to examine the ability of each analog to decrease production of inflammatory cytokines. To test for the potential of each analog to reduce vascular leakage, qPCR was used to examine the ability of each analog to increase mRNA levels of ZO1 and occludin, two junction proteins essential to vascular integrity. To test peptide stability in the vitreous, the analogs were incubated with dissected vitreous humor and the samples were analyzed at various time points using Maldi-TOF. These tests allowed for the systematic selection of analogs having the least toxicity and the strongest potential to reduce pathology in vivo.
Experiments were designed to assess the effects of each peptide compared to P78 on the inflammatory and vascular permeability/angiogenesis cytokines TNFα, IFNγ, and VEGFA. Briefly, human retinal RPE cells were grown to ˜75% confluency in 10% serum containing medium. The cells were then exposed to serum starvation in the presence or absence (control) of 25 nM of each peptide including the prototype P78 and the active fragment of P78, SpxA1. The supernatant from each treatment was tested for effects on the secretion of TNFα, IFNγ, and VEGFA. The data represent the percent change to the control samples and p values are given for each peptide in relationship to the P78 treatment (FIGS. 3A through 3B).

A short description of series [1]: Peptide bioavailability in mouse vitreous after 5 μg eye drop (MALDI TOF). Format: in vivo, C57BL/6 mice. As to conditions: compared to P78 and SpxA1. On the procedure:
Before the longitudinal efficacy studies were carried out in vivo, the bioavailability of the five analogs was examined in comparison to the parent compound P78 and its active 29-mer derivative, SpxA1.
Bioavailability of each peptide was determined in vitreous samples obtained at various time points after eye drops were given. Vitreous samples were harvested from enucleated eyes and immediately analyzed by mass spectrometry. Spectral intensities were compared to spectra of known concentrations of each analog to calculate amounts of peptides reaching the vitreous. The eye drops administered to normal mouse eyes contained 5 μg of the test compound. Bioavailability was studied at three time points: 1, 4, 6 hr using four animals/time point (n=8 eyes). The vitreous was rapidly dissected from each group after the drops were given and immediately analyzed by MALDI TOF.

For a further series, the system named is human ARPE19 cells. Nature of the series: Cell viability by ATP levels (CellTiter-Glo), serum starvation or H2O2. Format: cell-based. On the procedure: as §1, §2
The effects of the peptides to increase cell viability by increasing levels of ATP were tested in two models of cell death: (i) serum starvation; (ii) oxidative stress caused by hydrogen peroxide toxicity (300 uM). With respect to serum starvation, human ARPE19 cells were grown to ˜85% confluency in 10% serum containing medium after which the cells were placed in serum-free medium for 48 hr in the presence or absence (control) of 25 nM of each peptide. For ATP assay, CellTiter-Glo® reagents were used and luminescence was determined after 12 min spectrophotometrically (n=4) (FIG. 2A). With respect to oxidative stress, human ARPE19 cells were grown to ˜85% confluency in 10% serum containing medium. The cells were then treated with 300 uM H2O2 for 48 hours in the presence or absence (control) of 25 nM of each peptide. Levels of ATP were measured and % luminescence to controls and P78 was quantitated (n=4). Changes to ATP levels are plotted against control values and p values are given to P78 (FIG. 2B).

The next series has as its system TNFα. Kind of series: TNFα secretion by RPE cells, Luminex. Format: cell-based, human. On the procedure:
as §1, §2
(§3) Experiments were designed to assess the effects of each peptide compared to P78 on the inflammatory and vascular permeability/angiogenesis cytokines TNFα, IFNγ, and VEGFA. […]

The next series deals with IFNγ. Nature of the series: IFNγ secretion by RPE cells, Luminex. The class given is cell-based, human. How it is done: as §1, §2, §3
For the next series, the system named is HUVEC. Nature of the series: VEGF-mediated HUVEC tube formation on human dermal fibroblasts. Format: cell-based. The note with it: 100 nM peptide, 4 ng/ml VEGF, 12 days; compared to VEGF. On the procedure:
Human dermal fibroblasts were cultured at 1×10^5/well in IncuCyte seeding medium (Essen Bioscience) in 96 wells plates for 1 hr. Medium was removed and replaced with complete IncuCyte growth medium (Essen Bioscience). Human umbilical vein endothelial cells (HUVEC) containing a green fluorescent marker (HUVEC CytoLight green) cells at 2000 cells/well were/well to attached dermal fibroblasts cultures and placed in the IncuCyte Zoom fluorescent and phase contrast multiplex imaging incubator (Essen BioScience). Twenty four hours later 4 ng/ml VEGF was added to all wells and 100 nM/ml PEDF peptides added to test wells. Cultures containing VEGF alone were used as positive controls and those containing 100 μM Suramin (VEGF inhibitor) used as negative controls. The cultures were placed at 37° C. in the Incucyte Zoom and HUVEC tube length networks measured over a 12 day incubation period using the Incucyte CellPlayer Angiogenesis software module and interface systems. Media was refreshed every 3-4 days.

The subject of a further series is ZO1 and occludin. Nature of the series: qPCR of tight junction mRNA (potential to reduce vascular leakage). Format: cell-based. As to conditions: compared to P78 and SpxA1. On the procedure: as §2
To test for the potential of each peptide (81-2, 81-5, 81-12, 81-13 and 81-20) to reduce vascular leakage, qPCR was used to examine the ability of each analog to increase mRNA levels of Z01, a junction protein essential to vascular integrity (FIG. 4A).

[2] abbreviates: change versus control standard P78.
[3] abbreviates: change versus non-treated stressed control (C).

Regarding “SAISIGADARTASIIHR [Peptide 81-3, SAISIGADARTASIIHR]”, in the series “in vivo”, the level at 4 h amounted to 2280 ng/mL.

For the molecule “VLLSPLSVATALSAISIGADARTASIIHR [Peptide 81-10]”, the “effect on the other assays compared to P78” value in the series on RPE cultures is “less effective than P78”. The “effect in reducing VEGFA levels compared to P78” value in the series on VEGFA was “significantly better effects in reducing VEGFA levels”.

Molecule “SAISIGADERTESIIHR [Peptide 81-2, SAISIGADERTESIIHR]” yielded a level at 4 h in the series “in vivo” of 2000 ng/mL.

The molecule “VLLSPLSVATALSALSLGADERTESIIHRALYYDLISSPDIHGT [Peptide P-78, reference compound]” had a level at 4 h in the series “in vivo” of 1200 ng/mL.

As for VLLSPLSVATALSALSLGADERTESIIHR [SpxA1], in the series “in vivo”, the level at 4 h came to 920 ng/mL.

With `CCCC(=O)N[C@@H](CO)C(=O)N[C@@H](C)C(=O)N[C@H](C(=O)N[C@@H](CO)C(=O)N[C@H](C(=O)NCC(=O)N[C@@H](C)C(=O)N[C@@H](CC(=O)O)C(=O)N[C@@H](C)C(=O)N[C@@H](CCCNC(=N)N)C(=O)N[C@H](C(=O)N[C@@H](C)C(=O)N[C@@H](CO)C(=O)N[C@H](C(=O)N[C@H](C(=O)N[C@@H](Cc1c[nH]cn1)C(=O)N[C@@H](CCCNC(=N)N)C(=O)NCCOCCOCC(=O)O)[C@@H](C)CC)[C@@H](C)CC)[C@@H](C)O)[C@@H](C)CC)[C@@H](C)CC` [Peptide 81-5, {BA*}SAISIGADARTASIIHR{PEG*}] (Butyryl-SAISIGADARTASIIHR[AEEA]-OH), the “stability profile in the vitreous after 6 hr” value in [1] is reported as “best stability profile”.

Consider FGADERTESIIHR [Peptide 81-19], for which the “effect on the other assays compared to P78” value in the series on RPE cultures is listed as “less effective than P78”. The “effect in reducing VEGFA levels compared to P78” value with VEGFA was “significantly better effects in reducing VEGFA levels”.

For the molecule “{BA*}VLLSPLSVATALSAISIGADARTASIIHR{PEG*} (VLLSPLSVATALSAISIGADARTASIIHR[AEEA]; not fully specified (N-terminus); printed as {BA*}VLLSPLSVATALSAISIGADARTASIIHR{PEG*}) [Peptide 81-4, butyric acid on N-terminus, PEG2-CH2COOH at C-terminus]”, the “*ATP % to P78” value with human ARPE19 cells (setting [2]) is given as 9%. For the same molecule, the “*ATP % to C” value in the series on human ARPE19 cells (setting [3]) is “+7%”. In addition, the “*TNFα % to P78” value in the series with TNFα (setting [2]) is on record as −8%. For the same molecule, the “*TNFα % to C” value with TNFα (setting [3]) is reported as −2%. For the same molecule, in the series with IFNγ (setting [2]), the “*IFNγ % to P78” value is listed as −11%. For the same molecule, in the series on IFNγ (setting [3]), the “*IFNγ % to C” value is listed as −15%. Also, the “*VEGF % to P78” value with VEGFA (setting [2]) is given as −0%. For the same molecule, the “*VEGF % to C” value with VEGFA (setting [3]) is −11%.

On to “L-1-NALGADERTESIIHR ([1Nal]GADERTESIIHR) [Peptide 81-20]”, for which the “ATP viability tests: selection for in vivo studies” value in the series with human ARPE19 cells (serum starvation and 300 uM H2O2, 25 nM peptide, 48 hr) is on record as “good candidates for the in vivo studies”. Also, the “inhibition of HUVEC tube formation” value with HUVEC is given as “prevented tube formation compared to VEGF but less effective”. The “ZO1 mRNA expression” value in the series with ZO1 and occludin was “higher expression of ZO1 compared to P78 and SpxA1”.

The molecule “SALSLGADERTESIIHR [Peptide 81-1, SALSLGADERTESIIHR]” registered a level at 4 h in “in vivo” of 1800 ng/mL.

The values above are taken from US9611314B2, “Functional peptide analogs of PEDF” (The Penn State Research Foundation, priority 2013, dated 2017).
